Data on one molecule can be found in patent US10246466B2, “Diaryl macrocycles as modulators of protein kinases” (TP THERAPEUTICS, INC., priority 2014, dated 2019).

Each structure is given as a SMILES string.

The test system of one experiment is ERK. In words: Downstream signal target phosphorylation assay in KM12 cells (western blot). Type of experiment: cell-based. As to conditions: Homo sapiens, 5 hours treatment, read-out: inhibition of phosphorylation of ERK IC50. How it is done: (§1) Colorectal cell lines KM 12 (harboring endogenous TPM3-TRKA fusion gene) cells were cultured in DMEM medium, supplemented with 10% fetal bovine serum and 100 U/mL of penicillin/streptomycin. One million cells were seeded in 6-well plate for 24 hours before compounds treatment. Cells were washed with 1×PBS and collected after 5 hours treatment and lysed in RIPA buffer (50 mM Tris, pH 7.4, 150 mM NaCl, 1% NP-40, 0.5% Deoxycholate, 0.1% SDS) supplemented with 10 mM EDTA, Halt protease and phosphatase inhibitors (Thermo Scientific). Protein lysates (20 μg) were resolved on 4-12% Bolt Bis-Tris precasted gels with MES running buffer (Life Technologies), transferred to nitrocellulose membranes using Trans-Blot Turbo Transfer System (Bio-Rad) and detected with antibodies targeting phosphorylated TRK A (Cell Signaling Technology, Y496, Y680, Y681, clone C50F3; 1:1000 dilution), total TRK A (Santa Cruz Biotechnology, sc-11; clone C-14, 1:2000 dilution), phosphorylated AKT (Cell signaling, S473, D9E, #9271; 1:5000 dilution), total AKT (Cell Signaling Technology, 40D4; 1:2000 dilution), phosphorylated ERK (Cell Signaling Technology, Thr 202/204, D13.14.4E, #4370; 1:2000 dilution), total ERK (Cell Signaling Technology; 1:1000 dilution) and Tubulin (Sigma, T4026, 1:5000 dilution). […]
For orientation: Immunoblotting shows a protein as a band on a membrane.

The next experiment concerns AKT. The experiment is described as above. The format is cell-based. The following applies: Homo sapiens, 5 hours treatment, read-out: inhibition of phosphorylation of AKT IC50. How it is done: as §1
The test system of a further experiment is KM12 cells. In words: Caspase activity assay / PARP western blot. The format is cell-based. As to conditions: 72 hours. How it is done:
KM12 cells were maintained in DMEM medium supplemented with 10% fetal bovine serum and antibiotics. 500,000 cells were seeded in 12-well plate and various concentration of compounds were introduced for 72 hours For staurosporine treatment, 500 nM of STS were added at time of 60 hours and incubation of 12 hours as a positive control. All the cells were collected and washed with 1×PBS twice and then lysed in a lysis buffer (20 mM HEPES, 150 mM NaCl, 10 mM KCl, 5 mM EDTA, 1% NP40) supplemented with Halt protease and phosphatase inhibitors (Thermo Scientific). For caspase assays, around 20 μL (20 μg) of cell lysate were incubated with 20 μL of caspase3 glo reagent (Promega), measuring enzyme activity by the release of luminescence after 20 min incubation at 37° C. For western blotting, cell lysates were boiled and analyzed by SDS-PAGE/immunoblotting using PARP, or actin antibodies.

Experiment [1] concerns Essential thrombocythemia cell line SET-2 cells (harboring endogenous JAK2 point mutation). In words: SET-2 cell proliferation assay (CellTiter-Glo). The format is cell-based. The following applies: Homo sapiens, 72 hours incubation, read-out: SET2 cell proli. IC50. For orientation: ATP-based viability assays read luminescence as a measure of living cells.
In the next experiment the target is TPM3-TRKA (Homo sapiens (Human), UniProt P04629+P06753). As to the kind of experiment: TRKA phosphorylation assay in KM12 cells (western blot). Type of experiment: cell-based. The following applies: 5 hours treatment, read-out: inhibition of autophosphorylation of TPM3-TRKA IC50. How it is done:
as §1

The next experiment deals with JAK1 (Homo sapiens (Human), UniProt P23458). As to the kind of experiment: KINOMEscan kinase binding assay (DiscoveRx). How it is done:
(§2) Kinase binding assays were performed at DiscoveRx using the general KINOMEscan Kd Protocol (Fabian, M. A. et al., “A small molecule-kinase interaction map for clinical kinase inhibitors,” Nat. Biotechnol. 2005, 23(3):329-36). For most assays, kinase-tagged T7 phage strains were prepared in an E. coli host derived from the BL21 strain. E. coli were grown to log-phase and infected with T7 phage and incubated with shaking at 32° C. until lysis. The lysates were centrifuged and filtered to remove cell debris. The remaining kinases were produced in HEK-293 cells and subsequently tagged with DNA for qPCR detection. Streptavidin-coated magnetic beads were treated with biotinylated small molecule ligands for 30 minutes at room temperature to generate affinity resins for kinase assays. The liganded beads were blocked with excess biotin and washed with blocking buffer (SeaBlock (Pierce), 1% BSA, 0.05% Tween 20, 1 mM DTT) to remove unbound ligand and to reduce nonspecific binding. […] All reactions were performed in polystyrene 96-well plates in a final volume of 0.135 mL. […] The beads were then re-suspended in elution buffer (1×PBS, 0.05% Tween 20, 0.5 μM non-biotinylated affinity ligand) and incubated at room temperature with shaking for 30 minutes. The kinase concentration in the eluates was measured by qPCR.

In another experiment the target is TRKB (Homo sapiens (Human), UniProt Q16620). As to the kind of experiment: KINOMEscan kinase binding assay (DiscoveRx). How it is done: as §2
A further experiment concerns the target PLK4 kinase (Homo sapiens (Human), UniProt O00444). As to the kind of experiment: KINOMEscan kinase binding assay (DiscoveRx). The following applies: read-out: binding affinity with PLK4 kinase (Kd). How it is done: as §2
The target of a further experiment is ROS1 (Homo sapiens (Human), UniProt P08922). As to the kind of experiment: KINOMEscan kinase binding assay (DiscoveRx). How it is done: as §2
The target of a further experiment is JAK3 (Homo sapiens (Human), UniProt P52333). In words: KINOMEscan kinase binding assay (DiscoveRx). How it is done:
as §2

A further experiment addresses TRKA (Homo sapiens (Human), UniProt P04629). In words: KINOMEscan kinase binding assay (DiscoveRx). How it is done: as §2
The test system of experiment [2] is T cell lymphoma Karpas-299 cell line (harboring endogenous NPM-ALK fusion gene). As to the kind of experiment: Karpas-299 cell proliferation assay (CellTiter-Glo). Type of experiment: cell-based. As to conditions: Homo sapiens, 72 hours incubation, read-out: Karpas 299 cell proli. IC50.
For another experiment, the target named is ALK (Homo sapiens (Human), UniProt Q9UM73). As to the kind of experiment: KINOMEscan kinase binding assay (DiscoveRx). How it is done:
(§3) For most assays, kinase-tagged T7 phage strains were prepared in an E. coli host derived from the BL21 strain. E. coli were grown to log-phase and infected with T7 phage and incubated with shaking at 32° C. until lysis. The lysates were centrifuged and filtered to remove cell debris. The remaining kinases were produced in HEK-293 cells and subsequently tagged with DNA for qPCR detection. […] The liganded beads were blocked with excess biotin and washed with blocking buffer (SeaBlock (Pierce), 1% BSA, 0.05% Tween 20, 1 mM DTT) to remove unbound ligand and to reduce nonspecific binding. […] All reactions were performed in polystyrene 96-well plates in a final volume of 0.135 mL. […] The kinase concentration in the eluates was measured by qPCR.

The next experiment deals with JAK2 (Homo sapiens (Human), UniProt O60674). In words: KINOMEscan kinase binding assay (DiscoveRx). How it is done:
as §3

The test system of experiment [3] is Colorectal cell line KM12 (harboring endogenous TPM3-TRKA fusion gene). In words: KM12 cell proliferation assay (CellTiter-Glo). Type of experiment: cell-based. As to conditions: Homo sapiens, 72 hours incubation, read-out: KM 12 cell prolif. IC50.

Sequence of ALK (Q9UM73 19-1620): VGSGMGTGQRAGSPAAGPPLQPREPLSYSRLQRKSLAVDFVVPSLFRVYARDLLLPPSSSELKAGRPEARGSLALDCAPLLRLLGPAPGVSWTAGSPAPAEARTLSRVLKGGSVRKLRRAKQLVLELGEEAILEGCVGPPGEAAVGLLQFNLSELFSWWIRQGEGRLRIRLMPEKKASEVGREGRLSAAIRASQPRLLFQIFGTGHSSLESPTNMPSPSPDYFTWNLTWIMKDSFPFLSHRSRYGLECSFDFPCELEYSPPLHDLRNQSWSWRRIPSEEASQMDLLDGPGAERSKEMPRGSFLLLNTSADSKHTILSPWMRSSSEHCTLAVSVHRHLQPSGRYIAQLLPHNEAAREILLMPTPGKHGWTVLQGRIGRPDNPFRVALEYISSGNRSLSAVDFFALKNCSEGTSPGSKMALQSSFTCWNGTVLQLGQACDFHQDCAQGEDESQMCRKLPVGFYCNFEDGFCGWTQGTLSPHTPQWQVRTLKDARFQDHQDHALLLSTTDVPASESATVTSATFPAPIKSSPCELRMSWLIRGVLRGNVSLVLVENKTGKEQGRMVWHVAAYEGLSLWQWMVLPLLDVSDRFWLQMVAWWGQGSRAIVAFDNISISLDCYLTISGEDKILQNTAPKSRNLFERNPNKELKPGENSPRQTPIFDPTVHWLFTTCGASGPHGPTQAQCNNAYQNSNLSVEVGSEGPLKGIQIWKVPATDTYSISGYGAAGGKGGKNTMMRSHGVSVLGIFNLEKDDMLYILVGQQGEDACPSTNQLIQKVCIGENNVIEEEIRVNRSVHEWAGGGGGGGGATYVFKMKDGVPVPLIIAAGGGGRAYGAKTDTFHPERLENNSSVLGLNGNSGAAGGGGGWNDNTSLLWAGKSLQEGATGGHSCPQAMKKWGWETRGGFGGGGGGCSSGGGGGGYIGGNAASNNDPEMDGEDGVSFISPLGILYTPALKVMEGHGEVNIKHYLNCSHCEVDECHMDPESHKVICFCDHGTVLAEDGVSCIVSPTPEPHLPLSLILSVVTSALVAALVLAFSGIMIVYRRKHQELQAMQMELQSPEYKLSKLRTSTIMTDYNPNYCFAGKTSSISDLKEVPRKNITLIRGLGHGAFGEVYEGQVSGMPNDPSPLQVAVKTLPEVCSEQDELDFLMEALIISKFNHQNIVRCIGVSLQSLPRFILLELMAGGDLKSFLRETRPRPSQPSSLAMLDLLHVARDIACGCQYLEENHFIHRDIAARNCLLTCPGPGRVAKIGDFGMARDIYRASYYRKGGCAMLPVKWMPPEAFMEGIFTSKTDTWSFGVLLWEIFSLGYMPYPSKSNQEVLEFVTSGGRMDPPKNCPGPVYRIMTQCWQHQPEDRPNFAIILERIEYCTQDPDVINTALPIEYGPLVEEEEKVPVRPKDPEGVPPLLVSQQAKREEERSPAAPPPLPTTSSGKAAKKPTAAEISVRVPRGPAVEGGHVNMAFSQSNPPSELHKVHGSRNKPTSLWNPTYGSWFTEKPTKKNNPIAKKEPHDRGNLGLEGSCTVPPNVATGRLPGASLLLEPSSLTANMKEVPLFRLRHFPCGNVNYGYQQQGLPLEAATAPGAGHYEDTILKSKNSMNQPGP
Sequence of TRKA (P04629 33-796): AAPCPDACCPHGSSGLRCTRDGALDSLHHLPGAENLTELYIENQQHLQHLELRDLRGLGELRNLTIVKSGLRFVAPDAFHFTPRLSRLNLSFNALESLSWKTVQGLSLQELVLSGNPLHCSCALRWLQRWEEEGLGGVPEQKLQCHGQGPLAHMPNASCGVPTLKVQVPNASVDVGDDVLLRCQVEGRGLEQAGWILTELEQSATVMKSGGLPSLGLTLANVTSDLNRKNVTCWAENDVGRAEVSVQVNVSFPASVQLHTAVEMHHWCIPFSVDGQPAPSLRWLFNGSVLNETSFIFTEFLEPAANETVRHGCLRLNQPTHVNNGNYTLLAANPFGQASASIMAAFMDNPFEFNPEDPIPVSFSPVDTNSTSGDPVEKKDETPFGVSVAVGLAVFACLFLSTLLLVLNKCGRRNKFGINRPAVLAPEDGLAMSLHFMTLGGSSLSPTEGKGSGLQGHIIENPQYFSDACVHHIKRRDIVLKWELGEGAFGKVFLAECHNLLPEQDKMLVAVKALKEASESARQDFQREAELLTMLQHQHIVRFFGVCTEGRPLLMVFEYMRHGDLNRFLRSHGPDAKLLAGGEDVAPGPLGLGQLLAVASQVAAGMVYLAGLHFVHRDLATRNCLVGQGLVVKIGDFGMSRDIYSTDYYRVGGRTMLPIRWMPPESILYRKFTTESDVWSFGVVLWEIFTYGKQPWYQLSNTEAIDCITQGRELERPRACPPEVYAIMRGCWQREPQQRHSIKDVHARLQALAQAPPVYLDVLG
Sequence of PLK4 kinase (O00444 whole entry): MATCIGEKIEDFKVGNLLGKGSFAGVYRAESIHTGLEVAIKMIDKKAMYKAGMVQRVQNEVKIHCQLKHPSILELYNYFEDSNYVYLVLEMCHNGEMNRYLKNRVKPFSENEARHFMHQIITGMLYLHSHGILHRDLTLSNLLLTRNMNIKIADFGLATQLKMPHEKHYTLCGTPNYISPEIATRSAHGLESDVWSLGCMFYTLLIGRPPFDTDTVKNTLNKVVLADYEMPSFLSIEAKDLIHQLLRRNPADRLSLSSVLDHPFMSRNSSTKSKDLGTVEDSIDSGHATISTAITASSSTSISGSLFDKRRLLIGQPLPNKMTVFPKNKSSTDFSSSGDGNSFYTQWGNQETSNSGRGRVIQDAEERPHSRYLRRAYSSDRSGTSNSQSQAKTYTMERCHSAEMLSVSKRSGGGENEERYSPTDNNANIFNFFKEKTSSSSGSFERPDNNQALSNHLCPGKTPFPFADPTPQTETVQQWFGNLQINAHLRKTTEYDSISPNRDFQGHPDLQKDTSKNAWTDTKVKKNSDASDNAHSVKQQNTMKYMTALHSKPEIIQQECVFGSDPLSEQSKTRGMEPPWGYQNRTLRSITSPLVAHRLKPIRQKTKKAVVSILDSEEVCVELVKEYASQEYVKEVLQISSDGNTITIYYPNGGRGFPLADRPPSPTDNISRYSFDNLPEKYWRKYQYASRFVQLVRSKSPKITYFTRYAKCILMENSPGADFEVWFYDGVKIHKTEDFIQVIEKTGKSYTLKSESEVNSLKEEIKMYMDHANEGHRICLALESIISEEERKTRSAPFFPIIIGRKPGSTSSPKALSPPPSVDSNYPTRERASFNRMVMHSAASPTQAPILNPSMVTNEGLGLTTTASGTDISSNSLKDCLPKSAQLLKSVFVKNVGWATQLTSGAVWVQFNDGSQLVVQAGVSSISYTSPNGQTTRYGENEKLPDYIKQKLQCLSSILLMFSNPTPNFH
Sequence of TPM3-TRKA (P04629 other isoform, or with tags, fused parts or gaps): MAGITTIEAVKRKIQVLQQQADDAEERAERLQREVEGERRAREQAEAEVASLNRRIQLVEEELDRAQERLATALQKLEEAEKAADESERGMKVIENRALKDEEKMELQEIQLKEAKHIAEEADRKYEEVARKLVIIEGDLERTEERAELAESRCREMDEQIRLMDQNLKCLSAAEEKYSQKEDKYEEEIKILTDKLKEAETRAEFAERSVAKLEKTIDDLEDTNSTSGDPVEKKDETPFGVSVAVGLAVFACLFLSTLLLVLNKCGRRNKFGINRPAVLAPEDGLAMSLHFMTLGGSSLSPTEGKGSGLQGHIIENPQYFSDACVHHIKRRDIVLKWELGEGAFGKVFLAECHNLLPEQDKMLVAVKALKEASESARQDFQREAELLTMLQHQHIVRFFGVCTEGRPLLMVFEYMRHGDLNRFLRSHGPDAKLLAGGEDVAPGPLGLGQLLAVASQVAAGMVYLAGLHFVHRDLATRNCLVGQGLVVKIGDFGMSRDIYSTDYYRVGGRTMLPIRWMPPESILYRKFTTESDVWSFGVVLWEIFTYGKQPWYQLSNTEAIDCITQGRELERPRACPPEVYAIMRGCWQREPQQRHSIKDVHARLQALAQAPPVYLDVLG
Sequence of JAK1 (P23458 whole entry): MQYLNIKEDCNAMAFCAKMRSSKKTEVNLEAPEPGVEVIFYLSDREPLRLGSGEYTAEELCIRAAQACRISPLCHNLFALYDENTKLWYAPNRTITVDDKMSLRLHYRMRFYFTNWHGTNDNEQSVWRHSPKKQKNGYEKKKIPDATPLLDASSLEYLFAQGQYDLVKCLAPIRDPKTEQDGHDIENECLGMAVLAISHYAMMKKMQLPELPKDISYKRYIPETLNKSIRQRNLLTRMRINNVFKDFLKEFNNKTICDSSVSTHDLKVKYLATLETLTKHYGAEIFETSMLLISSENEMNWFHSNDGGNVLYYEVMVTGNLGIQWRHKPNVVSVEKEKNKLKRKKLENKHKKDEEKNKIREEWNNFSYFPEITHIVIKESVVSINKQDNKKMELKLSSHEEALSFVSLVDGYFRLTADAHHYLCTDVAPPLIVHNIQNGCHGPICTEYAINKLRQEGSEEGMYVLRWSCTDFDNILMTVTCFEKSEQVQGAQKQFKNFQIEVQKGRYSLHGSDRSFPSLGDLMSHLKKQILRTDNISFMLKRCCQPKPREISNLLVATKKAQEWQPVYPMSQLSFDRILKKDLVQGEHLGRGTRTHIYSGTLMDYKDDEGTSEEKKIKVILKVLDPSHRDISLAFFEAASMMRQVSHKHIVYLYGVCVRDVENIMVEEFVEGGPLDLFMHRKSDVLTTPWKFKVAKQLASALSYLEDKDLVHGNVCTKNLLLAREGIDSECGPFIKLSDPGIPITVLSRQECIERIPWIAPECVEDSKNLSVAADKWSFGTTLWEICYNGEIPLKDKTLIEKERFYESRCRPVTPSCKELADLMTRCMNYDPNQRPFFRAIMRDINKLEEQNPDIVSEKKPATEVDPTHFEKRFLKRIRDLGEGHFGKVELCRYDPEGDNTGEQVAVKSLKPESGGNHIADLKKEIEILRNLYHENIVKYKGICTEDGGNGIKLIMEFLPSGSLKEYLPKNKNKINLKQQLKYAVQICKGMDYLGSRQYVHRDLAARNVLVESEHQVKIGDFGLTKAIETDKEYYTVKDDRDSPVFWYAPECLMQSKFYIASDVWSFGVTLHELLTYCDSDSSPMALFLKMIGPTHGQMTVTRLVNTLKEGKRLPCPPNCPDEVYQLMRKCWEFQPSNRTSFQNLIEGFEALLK

The IC50 is the midpoint of a concentration-inhibition curve. As a reminder, the Kd is the equilibrium constant for the complex coming apart. Regarding `CN1Cc2cc(F)ccc2OCCNC(=O)c2cnn3ccc1nc23` [Example 20, 11-fluoro-14-methyl-6,7,13,14-tetrahydro-1,15-ethenopyrazolo[4,3-f][1,4,8,10]benzoxatriazacyclo-tridecin-4(5H)-one], the IC50 with ERK came out at 2 nM; in the experiment on AKT, 2.8 nM; in experiment [1] it was 2000 nM; on TPM3-TRKA it was 1.07 nM; in [2], 1000 nM; in experiment [3], 0.86 nM. Besides, in the experiment on KM12 cells, the “apoptosis of KM 12 cells” value was “induced apoptosis”. The Kd on JAK1 was more than 1000 nM; on TRKB, 0.18 nM; on PLK4 kinase it was 2.9 nM; on ROS1, 21 nM; on JAK3, 120 nM; on TRKA, 0.031 nM. For the same molecule, the results for the Kd at ALK and on JAK2 were 80 nM and 4.8 nM, respectively.
